± gives the expanded uncertainty stated by the source.
Conditions: DSC

## O=C(O)c1ccccc1Nc1cccc(C(F)(F)F)c1 [2-[[3-(trifluoromethyl)phenyl]amino]benzoic acid]
Crystal 1
  Triple point temperature: 410.95 ± 2.1 K
Metastable crystal
  Triple point temperature: 409.15 ± 2.1 K

Source: the NIST ThermoML archive (doi:10.1021/acs.jced.9b00278)
